Calls of active or inactive are those of the source. No cut-off for these calls is given here.
Tested on: not listed separately
Assay: Inhibition of TXB2 production in Sprague-Dawley rat whole blood
Assay type: functional, tissue-based

Row | IC50 [µM] | SMILES
1 | > 50 | O=C(O)c1ccc(OCCc2c(-c3ccccc3)n(C(c3ccccc3)c3ccccc3)c3ccc(Cl)cc23)cc1
2 | 25 | Cc1c(CC[S+]([O-])CCc2ccc(C(=O)O)cc2)c2cc(Cl)ccc2n1C(c1ccccc1)c1ccccc1 (stereo not drawn)
3 | 14 | O=C(O)c1ccc(OCCc2cn(C(c3ccccc3)c3ccccc3)c3ccc(Cl)cc23)cc1
4 | 13 | Cc1c(CCOC(=O)Nc2ccc(C(=O)O)cc2)c2cc(Cl)ccc2n1C(c1ccccc1)c1ccccc1
5 | 10 | Cc1c(CCS(=O)(=O)c2ccc(C(=O)O)cc2)c2cccc(Cl)c2n1C(c1ccccc1)c1ccccc1
6 | > 25 | Cc1c(CCNc2ccc(C(=O)O)cc2)c2cc(Cl)ccc2n1C(c1ccccc1)c1ccccc1
7 | 7 | COc1ccc2c(c1)c(CCS(=O)(=O)c1ccc(C(=O)O)cc1)c(C)n2C(c1ccccc1)c1ccccc1
8 | > 50 | Cc1c(CCOc2cc(C(=O)O)on2)c2cc(Cl)ccc2n1C(c1ccccc1)c1ccccc1
9 | 13 | Cc1c(CCOc2ccc(C(=O)O)cc2)c2ccc(Cl)cc2n1C(c1ccccc1)c1ccccc1
10 | > 25 | COC(=O)c1ccc(OCCc2c(C(C)(C)C)n(C(c3ccccc3)c3ccccc3)c3ccc(Cl)cc23)cc1
11 | > 50 | Cc1c(CCOc2cccc(C(=O)O)c2)c2cc(Cl)ccc2n1C(c1ccccc1)c1ccccc1
12 | 9 | Cc1c(CCOc2ccc(C(=O)O)cc2)c2cc(-c3ccccc3)ccc2n1C(c1ccccc1)c1ccccc1
13 | < 100 | Cc1c(CC(=O)O)c2cc(Cl)ccc2n1C(c1ccccc1)c1ccccc1
14 | > 100 | O=C(O)c1ccc(OCC(O)COc2ccc(SCCCCCc3ccccc3)cc2)cc1 (stereo not drawn)
15 | 50 | Cc1c(CCC(=O)NCc2ccc(C(=O)O)cc2)c2cc(Cl)ccc2n1C(c1ccccc1)c1ccccc1
16 | 100 | O=C(O)c1ccc(OCC(O)Cc2cn(C(c3ccccc3)c3ccccc3)c3cc(Cl)ccc23)cc1 (stereo not drawn)
17 | 48 | Cc1c(CCOc2ccc(CC(=O)O)cc2)c2cc(Cl)ccc2n1C(c1ccccc1)c1ccccc1
18 | 25 | Cc1c(CCOc2ccc(C(=O)O)cc2Cl)c2cc(Cl)ccc2n1C(c1ccccc1)c1ccccc1

Target: T1, Cytosolic phospholipase A2 (Homo sapiens, UniProt P47712)
T1 sequence (P47712 whole entry): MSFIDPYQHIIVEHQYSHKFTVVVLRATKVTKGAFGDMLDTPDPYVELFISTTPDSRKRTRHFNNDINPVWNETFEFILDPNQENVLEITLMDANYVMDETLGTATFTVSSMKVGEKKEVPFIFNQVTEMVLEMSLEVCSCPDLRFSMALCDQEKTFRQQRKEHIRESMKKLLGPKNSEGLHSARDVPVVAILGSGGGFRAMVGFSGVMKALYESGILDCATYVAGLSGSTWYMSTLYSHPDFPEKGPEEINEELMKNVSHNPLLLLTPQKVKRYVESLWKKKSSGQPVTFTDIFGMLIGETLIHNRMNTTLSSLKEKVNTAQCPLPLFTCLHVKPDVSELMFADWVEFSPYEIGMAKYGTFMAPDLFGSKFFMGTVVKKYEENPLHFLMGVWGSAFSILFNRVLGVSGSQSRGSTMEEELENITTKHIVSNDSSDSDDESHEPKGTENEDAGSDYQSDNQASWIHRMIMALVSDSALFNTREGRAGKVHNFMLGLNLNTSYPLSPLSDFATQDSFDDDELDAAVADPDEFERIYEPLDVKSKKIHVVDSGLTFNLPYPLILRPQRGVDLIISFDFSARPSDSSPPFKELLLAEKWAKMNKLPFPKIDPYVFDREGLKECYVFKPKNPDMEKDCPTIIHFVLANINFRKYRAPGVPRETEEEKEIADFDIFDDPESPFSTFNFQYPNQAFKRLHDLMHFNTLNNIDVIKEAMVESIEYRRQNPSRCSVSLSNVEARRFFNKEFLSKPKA
Assay: Inhibition of cytosolic phospholipase A2-alpha in GLU micelle assay

Row | IC50 [µM] | SMILES
19 | 120 | COc1c(Cc2cn(C(c3ccccc3)c3ccccc3)c3cc(Cl)ccc23)cccc1C(=O)O
20 | 8 | Cc1c(CCOc2ccc(C(=O)O)cc2)c2cc(N)ccc2n1C(c1ccccc1)c1ccccc1
21 | > 50 | O=C(O)c1ccc(OCCc2c(-c3ccccc3)n(C(c3ccccc3)c3ccccc3)c3ccc(Cl)cc23)cc1
22 | 18 | Cc1c(CC[S+]([O-])CCc2ccc(C(=O)O)cc2)c2cc(Cl)ccc2n1C(c1ccccc1)c1ccccc1 (stereo not drawn)
23 | 5 | O=C(O)c1ccc(OCCc2cn(C(c3ccccc3)c3ccccc3)c3ccc(Cl)cc23)cc1
24 | 38 | Cc1c(CCOC(=O)Nc2ccc(C(=O)O)cc2)c2cc(Cl)ccc2n1C(c1ccccc1)c1ccccc1
25 | 6 | Cc1c(CCS(=O)(=O)c2ccc(C(=O)O)cc2)c2cccc(Cl)c2n1C(c1ccccc1)c1ccccc1
26 | 85 | Cc1c(CCOc2ccc(C(=O)O)cn2)c2cc(Cl)ccc2n1C(c1ccccc1)c1ccccc1
27 | 23 | Cc1c(CCNc2ccc(C(=O)O)cc2)c2cc(Cl)ccc2n1C(c1ccccc1)c1ccccc1
28 | 3 | COc1ccc2c(c1)c(CCS(=O)(=O)c1ccc(C(=O)O)cc1)c(C)n2C(c1ccccc1)c1ccccc1
29 | 40 | Cc1c(CCOc2cc(C(=O)O)on2)c2cc(Cl)ccc2n1C(c1ccccc1)c1ccccc1
30 | 6 | Cc1c(CCOc2ccc(C(=O)O)cc2)c2ccc(Cl)cc2n1C(c1ccccc1)c1ccccc1
31 | 20 | COC(=O)c1ccc(OCCc2c(C(C)(C)C)n(C(c3ccccc3)c3ccccc3)c3ccc(Cl)cc23)cc1
32 | 120 | Cc1c(CCOc2cccc(C(=O)O)c2)c2cc(Cl)ccc2n1C(c1ccccc1)c1ccccc1
33 | 33 | Cc1c(CCOc2ccc(C(=O)O)cc2)c2cc(-c3ccccc3)ccc2n1C(c1ccccc1)c1ccccc1
34 | 165 | Cc1c(CC(=O)O)c2cc(Cl)ccc2n1C(c1ccccc1)c1ccccc1
35 | 340 | O=C(O)c1ccc(OCC(O)COc2ccc(SCCCCCc3ccccc3)cc2)cc1 (stereo not drawn)
36 | 30 | Cc1c(CCC(=O)NCc2ccc(C(=O)O)cc2)c2cc(Cl)ccc2n1C(c1ccccc1)c1ccccc1
37 | 2 | Cc1c(CCCc2ccc(C(=O)O)cc2)c2cc(Cl)ccc2n1C(c1ccccc1)c1ccccc1
38 | 40 | O=C(O)c1ccc(OCC(O)Cc2cn(C(c3ccccc3)c3ccccc3)c3cc(Cl)ccc23)cc1 (stereo not drawn)
39 | 90 | O=C(O)c1cccc(CC(O)Cc2cn(C(c3ccccc3)c3ccccc3)c3cc(Cl)ccc23)c1 (stereo not drawn)
40 | > 10 | Cc1c(CCOc2ccc(CC(=O)O)cc2)c2cc(Cl)ccc2n1C(c1ccccc1)c1ccccc1
41 | 11 | Cc1c(CCOc2ccc(C(=O)O)cc2Cl)c2cc(Cl)ccc2n1C(c1ccccc1)c1ccccc1

Tested on: not listed separately
Assay: (§1) Inhibition of TXB2 production in Sprague-Dawley rat whole blood at 10 uM
Assay type: functional, tissue-based

Row | IC50 | SMILES
42 | Not Active | Cc1c(CCOc2ccc(C(=O)O)cn2)c2cc(Cl)ccc2n1C(c1ccccc1)c1ccccc1

Organism: Rattus norvegicus
Assay: as §1
Assay type: functional, tissue-based

Row | SMILES | inhibition
43 | Cc1c(CCOc2ccc(C(=O)O)cc2)c2cc(N)ccc2n1C(c1ccccc1)c1ccccc1 | inactive
